Assays:
Wild-type HIV-1 = test: A3F-mediated restriction of wild-type HIV-1; virus from 293T stably expressing A3F, TZM-bl readout; assay type: cell-based; conditions: Human immunodeficiency virus 1, HEK-293T, read-out: A3F-mediated Restriction by Compounds on Wild-type HIV-1 (% of HIV replication relative to DMSO treated Control)
Method: To test the effect of compounds shown to boost A3G-Luc levels in our screening systems on inhibition of wild-type HIV-1 replication by A3G or A3F, 293T cell lines stably expressing A3G or A3F were plated (750,000 cells per well in 6-well plate). At 24 hrs post plating, 1.5 μg of a wild-type (Vif-positive) HIV-1 proviral vector, NL4.3, was transfected into the 293T stable cell lines expressing either A3G or A3F. At 4 hrs post transfection, either DMSO as a control or an individual compound from series described below was added into the culture medium at a 10 μM concentration. At 1 day post transfection, supernatant fluids containing viral particles were filtered through […] filter to remove cellular debris. To test the effect of compound on HIV-1 replication, TZM-bl indicator cells were plated at a density of 10,000 cells/well in a 96 well culture plate 24 hrs prior to infection. TZM-bl indicator cells express luciferase gene under the control of HIV LTR promoter and are routinely used to measure HIV-1 replication capability. On the day of infection, the culture medium was removed and the cells inoculated with equal amount of HIV-1 particles in triplicate with 100 μl of viral supernatants in culture medium containing 20 μg/ml DEAE-dextran. After 24 hrs of incubation, culture medium was removed from each well and replaced with 100 μl of Britelite Plus luciferase assay substrate. Following 5 min. of incubation at room temperature, 75 μl of each cell lysate was transferred to a 96-well OptiPlate 96 and luminescence was measured in a VICTOR X2 Multilabel Reader as described above. Relative infectivity was calculated by plotting luciferase activity from viral particle from DMSO treated A3G or A3F cell lines as 100%. We only tested effect A3F- or A3G mediated restriction of HIV-1 replication by compounds boosting luciferase activity by more than 160% compared to DMSO control sample.

BHPrE = test: Cancer cell death, cell numbers vs DMSO; assay type: cell-based; conditions: 6 μM, 8 days; prostate cell line, wild-type functional p53
Excerpt: (§1) To test the effect of the compounds described below on cancer cell death, cell lines derived from different types of cancer were studied in vitro. MCF10A, MCF7, T47D, MDA-MB-157 and MDA-MB-231 are breast cancer cell lines. NHPrE, BHPrE, RWPE1, DU145, and PC3 cells are prostate cell lines. HeLa is cervical cancer cell line. HEK293 is human embryonic kidney cell line lacking A3B expression. There are differences among these cancer cell lines in p53 expression (44-46). MCF10A, MCF7, NHPrE, BHPrE and HEK293 cells have wild-type and functional p53. RWPE1 and HeLa cells have wild-type p53 but the p53 protein in these cell line is not functional because of effects of human papilloma virus E6 protein. T47D, MDA-MB-231, and DU145 cell lines have mutant p53, while MDA-MB-157 and PC3 cells have no p53 expression. 25,000 cells per well were plated in 6 well plates. In the case of HEK293 cells. 500,000 cells per well in 6-well plates were used instead. After 24 hrs, culture medium was replaced with new medium containing either DMSO as control or one of the compounds described below (6 μM per well concentration). After 8 days incubation with compounds, cell numbers were counted from each well and plotted with number of cells from DMSO treated sample as 100%. We performed the experiments at least twice. HEK293, MCF7 and T47D cells they were maintained for 16 days with compounds instead of 8 days.

DU145 = test: Cancer cell death, cell numbers vs DMSO; assay type: cell-based; conditions: 6 μM, 8 days; prostate cell line, mutant p53
Excerpt: as §1

HeLa = test: Cancer cell death, cell numbers vs DMSO; assay type: cell-based; conditions: 6 μM, 8 days; cervical cancer cell line, p53 not functional
Excerpt: as §1

MCF10A = test: Cancer cell death, cell numbers vs DMSO; assay type: cell-based; conditions: 6 μM, 8 days; breast cell line, wild-type functional p53
Excerpt: as §1

MCF7 = test: Cancer cell death, cell numbers vs DMSO; assay type: cell-based; conditions: 6 μM, 16 days; breast cancer cell line, wild-type functional p53
Excerpt: as §1

MDA-MB-157 = test: Cancer cell death, cell numbers vs DMSO; assay type: cell-based; conditions: 6 μM, 8 days; breast cancer cell line, no p53 expression
Excerpt: as §1

MDA-MB-231 = test: Cancer cell death, cell numbers vs DMSO; assay type: cell-based; conditions: 6 μM, 8 days; breast cancer cell line, mutant p53
Excerpt: as §1

NHPrE = test: Cancer cell death, cell numbers vs DMSO; assay type: cell-based; conditions: 6 μM, 8 days; prostate cell line, wild-type functional p53
Excerpt: as §1

PC3 = test: Cancer cell death, cell numbers vs DMSO; assay type: cell-based; conditions: 6 μM, 8 days; prostate cell line, no p53 expression
Excerpt: as §1

RWPE1 = test: Cancer cell death, cell numbers vs DMSO; assay type: cell-based; conditions: 6 μM, 8 days; prostate cell line, p53 not functional
Excerpt: as §1

T47D = test: Cancer cell death, cell numbers vs DMSO; assay type: cell-based; conditions: 6 μM, 16 days; breast cancer cell line, mutant p53
Excerpt: as §1

HEK293 = test: Cancer cell death, cell numbers vs DMSO; assay type: cell-based, human; conditions: 6 μM, 16 days; embryonic kidney cell line lacking A3B, wild-type functional p53
Excerpt: as §1

mutant Y124A A3G = target: T1, mutant Y124A A3G (Homo sapiens, UniProt Q9HC16, Y124A); test: Steady state A3 protein level by immunoblot in transiently transfected 293T cells; assay type: cell-based; conditions: 293T transiently transfected, immunoblot (FIG. 7)
T1 construct: expressed in transfected cells; host or cells: 293T, transient transfection
Method: (§2) FIG. 7. 293T cells were transiently transfected with 400 ng of expression vectors for wild type A3G (A3G), a mutant A3G (A3G Y124A), and A3F (A3F) to test effect of NU52 treatment on steady state levels of the respective A3 protein, as detected by immunoblotting with respective antibodies, with GAPDH as loading control.

wild type A3F = target: T2, wild type A3F (Homo sapiens, UniProt Q8IUX4); test: as above; assay type: cell-based; conditions: 293T transiently transfected, immunoblot (FIG. 7)
T2 construct: expressed in transfected cells; host or cells: 293T, transient transfection
Method: as §2

wild type A3G = target: T3, wild type A3G (Homo sapiens, UniProt Q9HC16); test: as above; assay type: cell-based; conditions: 293T transiently transfected, immunoblot (FIG. 7)
T3 construct: expressed in transfected cells; host or cells: 293T, transient transfection
Method: as §2

HIV NL4-3 = test: Infectivity of virions from 293T co-transfected with NL4-3 and A3F, TZM-bl cells; assay type: cell-based, HIV-1; conditions: co-transfection of 293T with HIV NL4-3 and A3F (FIG. 8)
Method: FIG. 8. 293T cells were co-transfected with […] of NL4.3 plasmid DNA and 400 ng of either control or A3F/G DNAs, with or without NU52. Infectivity of equal amounts of resulting viruses (normalized by HIV-1 p24 antigen) were measured using TZM-bl cells. NU-52 treatment of producer cell reduced infectivity of virus produced from those cells.

T1 sequence (Q9HC16 whole entry Y124A): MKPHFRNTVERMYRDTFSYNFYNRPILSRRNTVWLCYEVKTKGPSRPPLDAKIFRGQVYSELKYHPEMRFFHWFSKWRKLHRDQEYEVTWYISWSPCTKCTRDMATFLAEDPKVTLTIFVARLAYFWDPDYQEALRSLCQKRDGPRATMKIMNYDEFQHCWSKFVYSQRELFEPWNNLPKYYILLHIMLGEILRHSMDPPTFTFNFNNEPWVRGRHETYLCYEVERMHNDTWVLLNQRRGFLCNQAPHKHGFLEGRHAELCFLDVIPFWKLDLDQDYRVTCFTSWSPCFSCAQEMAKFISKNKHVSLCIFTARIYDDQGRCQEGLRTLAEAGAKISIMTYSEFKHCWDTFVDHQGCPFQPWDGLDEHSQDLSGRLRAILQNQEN
T3 sequence (Q9HC16 whole entry): as the sequence (Q9HC16 whole entry Y124A) above, with A124Y counted along it
T2 sequence (Q8IUX4 whole entry): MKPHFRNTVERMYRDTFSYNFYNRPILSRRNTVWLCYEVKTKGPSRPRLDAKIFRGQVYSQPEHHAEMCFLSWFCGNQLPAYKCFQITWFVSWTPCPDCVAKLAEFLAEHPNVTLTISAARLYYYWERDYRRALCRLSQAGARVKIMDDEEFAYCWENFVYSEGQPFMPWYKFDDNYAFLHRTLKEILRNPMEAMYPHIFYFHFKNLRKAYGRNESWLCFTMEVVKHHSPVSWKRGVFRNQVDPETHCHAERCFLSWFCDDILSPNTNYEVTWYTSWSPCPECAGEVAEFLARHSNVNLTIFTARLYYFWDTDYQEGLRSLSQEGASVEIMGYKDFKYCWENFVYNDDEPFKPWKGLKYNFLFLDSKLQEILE

| Structure (SMILES) | activity at 10 µM (Wild-type HIV-1) | cell killing (cell numbers vs DMSO) (BHPrE) | cell killing (cell numbers vs DMSO) (DU145) | cell killing (cell numbers vs DMSO) (HeLa) | cell killing (cell numbers vs DMSO) (MCF10A) | cell killing (cell numbers vs DMSO) (MCF7) | cell killing (cell numbers vs DMSO) (MDA-MB-157) | cell killing (cell numbers vs DMSO) (MDA-MB-231) | cell killing (cell numbers vs DMSO) (NHPrE) | cell killing (cell numbers vs DMSO) (PC3) | cell killing (cell numbers vs DMSO) (RWPE1) | cell killing (cell numbers vs DMSO) (T47D) | cell killing (cell numbers vs DMSO) (HEK293) | expression of mutant Y124A A3G (mutant Y124A A3G) | expression of wild type A3F (wild type A3F) | expression of wild type A3G (wild type A3G) | infectivity of virions (HIV NL4-3) |
| --- | --- | --- | --- | --- | --- | --- | --- | --- | --- | --- | --- | --- | --- | --- | --- | --- | --- |
| COc1ccc(C(=O)Nc2ccc(Cl)c(Cl)c2)cc1NC(=O)CC1CC1 [NU-466] | 59% | not killed | kill | kill | not killed | not killed | kill | kill | not killed | kill | kill | kill | not killed |  |  |  |  |
| COc1ccc(C(=O)Nc2ccc(Cl)c(Cl)c2)cc1NC(=O)C(C)C [NU-52] | 57% | not killed | kill | kill | not killed | not killed | kill | kill | not killed | kill | kill | kill | not killed | increased | increased | increased | decreased infectivity |
| COc1ccc(C(=O)Nc2ccc(Cl)c(Cl)c2)cc1NC(=O)C1CCC1 [NU-302] | 58% | not killed | kill | kill | not killed | not killed | kill | kill | not killed | kill | kill | kill | not killed |  |  |  |  |

Source: patent US9688637B2, “3-amidobenzamides and uses thereof for increasing cellular levels of A3G and other A3 family members” (Northwestern University, priority 2014, dated 2017)
